Tests used:
kochia = test: Test C postemergence; assay type: in vivo, Kochia scoparia; conditions: Bassia scoparia, post-emergence
Text: (§1) Seeds of plant species selected from blackgrass (Alopecurus myosuroides), Italian ryegrass (Lolium multiflorum), wheat, winter (winter wheat, Triticum aestivum), galium (catchweed bedstraw, Galium aparine), corn (Zea mays), large (Lg) crabgrass (Digitaria sanguinalis), giant foxtail (Setaria faberii), johnsongrass (Sorghum halepense), lambsquarters (Chenopodium album), morningglory (Ipomoea coccinea), yellow nutsedge (Cyperus esculentus), pigweed (Amaranthus retroflexus), ragweed (common ragweed, Ambrosia elatior), soybean (Glycine max), barnyardgrass (Echinochloa crus-galli), oilseed rape (Brassica napus), waterhemp (common waterhemp, Amaranthus rudis), kochia (Kochia scoparia), wild oat (Avena fatua), surinam grass (Brachiaria decumbens), foxtail, green (green foxtail, Setaria viridis), goosegrass (Eleusine indica), bromegrass, downy (downy bromegrass, Bromus tectorum), nightshade (eastern black nightshade, Solanum ptycanthum), cocklebur (common cocklebur, Xanthium strumarium), cupgrass, woolly (woolly cupgrass, Eriochloa villosa), bermudagrass (Cynodon dactylon), sunflower, (common oilseed sunflower, Helianthus annuus), Russian thistle (Salsola kali), and velvetleaf (Abutilon theophrasti) were planted into a blend of loam soil and sand and treated preemergence with test chemicals formulated in a non-phytotoxic solvent mixture which included a surfactant.
(§2) At the same time, plants selected from these crop and weed species and also barley, winter (winter barley, Hordeum vulgare), windgrass (Apera spica-venti), chickweed (common chickweed, Stellaria media), deadnettle (henbit deadnettle, Lamium amplexicaule), and canarygrass (littleseed canarygrass, Phalaris minor) were planted in pots containing Redi-Earth® planting medium (Scotts Company, 14111 Scottslawn Road, Marysville, Ohio 43041) comprising spaghnum peat moss, vermiculite, wetting agent and starter nutrients and treated with postemergence applications of test chemicals formulated in the same manner. Plants ranged in height from 2 to 18 cm (1- to 4-leaf stage) for postemergence treatments. Treated plants and controls were maintained in a greenhouse for 13 to 15 days, after which time all species were compared to controls and visually evaluated. Plant response ratings, summarized in Table C, are based on a scale of 0 to 100 where 0 is no effect and 100 is complete control. A dash (-) response means no test result.

morningglory [1] = test: Test A postemergence; assay type: in vivo, Ipomoea spp.
Procedure, shortened: (§3)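 Visual 0–100 rating (100 = complete control) taken about 10 d post-treatment relative to untreated checks. Preemergence: directed soil spray on sown loam/sand pots. Postemergence: seedlings 2–10 cm, 1–2 leaf. Non-phytotoxic solvent formulation with surfactant.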

morningglory [2] = test: Test A preemergence; assay type: in vivo, Ipomoea spp.
Procedure, shortened: as §3

johnsongrass = test: Test C postemergence; assay type: in vivo, Sorghum halepense; conditions: Sorghum halepense, post-emergence
Text: as §1, §2

barnyardgrass = test: Test A preemergence; assay type: in vivo, Echinochloa crus-galli
Procedure, shortened: as §3

blackgrass = test: Test C postemergence; assay type: in vivo, Alopecurus myosuroides; conditions: Alopecurus myosuroides, post-emergence
Text: as §1, §2

corn = test: Test A preemergence; assay type: in vivo, Zea mays
Procedure, shortened: as §3

morningglory [3] = test: Test C postemergence; assay type: in vivo, Ipomoea coccinea; conditions: Ipomoea, post-emergence
Text: as §1, §2

wheat [4] = test: Test A preemergence; assay type: in vivo, Triticum aestivum
Procedure, shortened: as §3

wheat [5] = test: Test A postemergence; assay type: in vivo, Triticum aestivum
Procedure, shortened: as §3

yellow nutsedge = test: Test C postemergence; assay type: in vivo, Cyperus esculentus; conditions: Cyperus, post-emergence
Text: as §1, §2

sedge, umbrella = test: Test B flooded paddy test; assay type: in vivo, Cyperus difformis; conditions: Flood, 250 g ai/ha, 0 to 100 scale where 0 is no effect and 100 is complete control
Procedure, shortened: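 Scores from 0 (no effect) to 100 (complete control) are visual comparisons with controls, taken 13 to 15 days after compound was applied into floodwater 3 cm deep around 2-leaf plants.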

large (Lg) crabgrass = test: Test C postemergence; assay type: in vivo, Digitaria sanguinalis; conditions: Digitaria sanguinalis, post-emergence
Text: as §1, §2

[6] = 125 g ai/ha, 0 to 100 scale where 0 is no effect and 100 is complete control
[7] = 500 g ai/ha, 0 to 100 scale where 0 is no effect and 100 is complete control
[8] = 125 g ai/ha, 0 to 100 scale, 0 no effect, 100 complete control

SMILES: Clc1cnn(-c2ccccc2Oc2ncc(Br)cn2)c1 [Compound 5, 5-bromo-2-[2-(4-chloro-1H-pyrazol-1-yl)phenoxy]pyrimidine]
- pest or weed control at 125 g/ha (kochia; 125 g ai/ha, postemergence, read-out: Plant response rating (0 to 100), Kochia): 70%
- pest or weed control at 250 g/ha (kochia; 250 g ai/ha, postemergence, read-out: Plant response rating (0 to 100), Kochia): 100%
- pest or weed control at 31 g/ha (kochia; Postemergence, 31 g ai/ha, scale 0 to 100 (0 no effect, 100 complete control), 13 to 15 days, read-out: Plant response rating, Kochia): 20%
- pest or weed control at 62 g/ha (kochia; Postemergence, 62 g ai/ha, scale 0 to 100 (0 no effect, 100 complete control), read-out: Plant response rating, Kochia): 55%
- pest or weed control at 125 g/ha (morningglory [1]; Ipomoea, post-emergence, 240 h, 125 g ai/ha, 0 to 100 scale where 0 is no effect and 100 is complete control, read-out: Plant response rating, Morningglory): 80%
- pest or weed control at 500 g/ha (morningglory [1]; Ipomoea, post-emergence, 240 h, 500 g ai/ha, 0 to 100 scale, 0 no effect, 100 complete control, read-out: Plant response rating Morningglory): 90%
- pest or weed control at 125 g/ha (morningglory [2]; Ipomoea, pre-emergence, 240 h, 125 g ai/ha, 0 to 100 scale where 0 is no effect and 100 is complete control, read-out: Morningglory plant response rating): 0%
- pest or weed control at 500 g/ha (morningglory [2]; Ipomoea, pre-emergence, 240 h, 500 g ai/ha, 0 to 100 scale, 0 no effect, 100 complete control, approx. 10 days, read-out: Morningglory plant response rating): 20%
- pest or weed control at 125 g/ha (johnsongrass; 125 g ai/ha, postemergence, read-out: Plant response rating (0 to 100), Johnsongrass): 5%
- pest or weed control at 250 g/ha (johnsongrass; 250 g ai/ha, postemergence, read-out: Plant response rating (0 to 100), Johnsongrass): 10%
- pest or weed control at 31 g/ha (johnsongrass; Postemergence, 31 g ai/ha, scale 0 to 100 (0 no effect, 100 complete control), 13 to 15 days, read-out: Plant response rating, Johnsongrass): 5%
- pest or weed control at 62 g/ha (johnsongrass; Postemergence, 62 g ai/ha, scale 0 to 100 (0 no effect, 100 complete control), read-out: Plant response rating, Johnsongrass): 5%
- pest or weed control at 125 g/ha (barnyardgrass; Echinochloa crus-galli, pre-emergence, 240 h, 125 g ai/ha, 0 to 100 scale where 0 is no effect and 100 is complete control, read-out: Barnyardgrass plant response rating): 10%
- pest or weed control at 500 g/ha (barnyardgrass; Echinochloa crus-galli, pre-emergence, 240 h, 500 g ai/ha, 0 to 100 scale, 0 no effect, 100 complete control, approx. 10 days, read-out: Barnyardgrass plant response rating): 80%
- pest or weed control at 125 g/ha (blackgrass; 125 g ai/ha, postemergence, read-out: Plant response rating (0 to 100), Blackgrass): 20%
- pest or weed control at 250 g/ha (blackgrass; 250 g ai/ha, postemergence, read-out: Plant response rating (0 to 100), Blackgrass): 45%
- pest or weed control at 31 g/ha (blackgrass; Postemergence, 31 g ai/ha, scale 0 to 100 (0 no effect, 100 complete control), 13 to 15 days, read-out: Plant response rating, Blackgrass): 0%
- pest or weed control at 62 g/ha (blackgrass; Postemergence, 62 g ai/ha, scale 0 to 100 (0 no effect, 100 complete control), read-out: Plant response rating, Blackgrass): 5%
- plant injury at 125 g/ha (corn; Zea mays, pre-emergence, 240 h, 125 g ai/ha, 0 to 100 scale where 0 is no effect and 100 is complete control, read-out: Corn plant response rating): 0%
- plant injury at 500 g/ha (corn; Zea mays, pre-emergence, 240 h, 500 g ai/ha, 0 to 100 scale, 0 no effect, 100 complete control, approx. 10 days, read-out: Corn plant response rating): 0%
- pest or weed control at 125 g/ha (morningglory [3]; 125 g ai/ha, postemergence, read-out: Plant response rating (0 to 100), Morningglory): 60%
- pest or weed control at 250 g/ha (morningglory [3]; 250 g ai/ha, postemergence, read-out: Plant response rating (0 to 100), Morningglory): 90%
- pest or weed control at 31 g/ha (morningglory [3]; Postemergence, 31 g ai/ha, scale 0 to 100 (0 no effect, 100 complete control), 13 to 15 days, read-out: Plant response rating, Morningglory): 40%
- pest or weed control at 62 g/ha (morningglory [3]; Postemergence, 62 g ai/ha, scale 0 to 100 (0 no effect, 100 complete control), read-out: Plant response rating, Morningglory): 60%
- plant injury at 125 g/ha (wheat [4]; Triticum aestivum, pre-emergence, 240 h, 125 g ai/ha, 0 to 100 scale where 0 is no effect and 100 is complete control, read-out: Wheat plant response rating): 0%
- plant injury at 500 g/ha (wheat [4]; Triticum aestivum, pre-emergence, 240 h, 500 g ai/ha, 0 to 100 scale, 0 no effect, 100 complete control, approx. 10 days, read-out: Wheat plant response rating): 20%
- plant injury at 125 g/ha (wheat [5]; Triticum aestivum, post-emergence, 240 h, 125 g ai/ha, 0 to 100 scale where 0 is no effect and 100 is complete control, read-out: Plant response rating, Wheat): 0%
- plant injury at 500 g/ha (wheat [5]; Triticum aestivum, post-emergence, 240 h, 500 g ai/ha, 0 to 100 scale, 0 no effect, 100 complete control, read-out: Plant response rating Wheat): 40%
- pest or weed control at 125 g/ha (yellow nutsedge; 125 g ai/ha, postemergence, read-out: Plant response rating (0 to 100), Nutsedge, Yellow): 15%
- pest or weed control at 250 g/ha (yellow nutsedge; 250 g ai/ha, postemergence, read-out: Plant response rating (0 to 100), Nutsedge, Yellow): 15%
- pest or weed control at 31 g/ha (yellow nutsedge; Postemergence, 31 g ai/ha, scale 0 to 100 (0 no effect, 100 complete control), 13 to 15 days, read-out: Plant response rating, Nutsedge, Yellow): 5%
- pest or weed control at 62 g/ha (yellow nutsedge; Postemergence, 62 g ai/ha, scale 0 to 100 (0 no effect, 100 complete control), read-out: Plant response rating, Nutsedge, Yellow): 5%
- pest or weed control at 250 g/ha (sedge, umbrella; Cyperus difformis, read-out: Plant response rating, Sedge, Umbrella): 50%
- pest or weed control at 125 g/ha (large (Lg) crabgrass; 125 g ai/ha, postemergence, read-out: Plant response rating (0 to 100), Crabgrass, Large): 20%
- pest or weed control at 250 g/ha (large (Lg) crabgrass; 250 g ai/ha, postemergence, read-out: Plant response rating (0 to 100), Crabgrass, Large): 20%
- pest or weed control at 31 g/ha (large (Lg) crabgrass; Postemergence, 31 g ai/ha, scale 0 to 100 (0 no effect, 100 complete control), 13 to 15 days, read-out: Plant response rating, Crabgrass, Large): 5%
- pest or weed control at 62 g/ha (large (Lg) crabgrass; Postemergence, 62 g ai/ha, scale 0 to 100 (0 no effect, 100 complete control), read-out: Plant response rating, Crabgrass, Large): 15%

SMILES: N#Cc1cnn(-c2c(C#N)cccc2Oc2ncc(Br)cn2)c1 [Compound 135]
- Plant response rating, Barnyardgrass (barnyardgrass; [6]): 40
- Barnyardgrass plant response rating (barnyardgrass; [7]): 90
- Wheat plant response rating (wheat [5]; [6]): 10
- Plant response rating, Wheat (wheat [5]; [7]): 60
- Plant response rating, Sedge, Umbrella (sedge, umbrella): 75

SMILES: FC(F)c1cccc(Oc2ncc(Cl)cn2)c1-n1cc(C(F)(F)F)cn1 [Compound 170]
- Morningglory plant response rating (morningglory [1]; [6]): 60
- Plant response rating, Morningglory (morningglory [1]; [7]): 90
- Morningglory plant response rating (0 to 100 scale) (morningglory [2]; 125 g ai/ha): 20
- Morningglory plant response rating (morningglory [2]; [7]): 90
- Plant response rating, Barnyardgrass (barnyardgrass; [6]): 90
- Barnyardgrass plant response rating (barnyardgrass; [7]): 100
- Plant response rating, Corn (corn; [6]): 0
- Corn plant response rating (corn; [7]): 20
- Wheat plant response rating (0 to 100 scale) (wheat [4]; 125 g ai/ha): 20
- Wheat plant response rating (wheat [4]; [7]): 20
- Wheat plant response rating (wheat [5]; [6]): 30
- Plant response rating, Wheat (wheat [5]; [7]): 70
- Plant response rating, Sedge, Umbrella (sedge, umbrella): 90

SMILES: NC(=S)c1cccc(Oc2ncc(Cl)cn2)c1-n1cc(Cl)cn1 [Compound 292]
- Plant response rating, Morningglory (morningglory [1]; [8]): 90
- Plant response rating, Morningglory (morningglory [1]; [7]): 100
- Morningglory plant response rating (0 to 100 scale) (morningglory [2]; 125 g ai/ha): 30
- Morningglory plant response rating (morningglory [2]; [7]): 90
- Barnyardgrass plant response rating (0 to 100 scale, 0 is no effect, 100 is complete control) (barnyardgrass; 125 g ai/ha): 80
- Barnyardgrass plant response rating (barnyardgrass; [7]): 100
- Corn plant response rating (0 to 100 scale) (corn; 125 g ai/ha): 20
- Corn plant response rating (corn; [7]): 30
- Wheat plant response rating (0 to 100 scale) (wheat [4]; 125 g ai/ha): 10
- Wheat plant response rating (wheat [4]; [7]): 30
- Plant response rating, Wheat (wheat [5]; [8]): 10
- Plant response rating, Wheat (wheat [5]; [7]): 60
- Plant response rating, Sedge, Umbrella (sedge, umbrella): 75
